Values of other authors in article PMC9516332 (Frontiers in Oncology, 2022).
Read-outs that look alike come from different tables or passages of the source.

What was measured:
Conditions in all cases: cited from earlier work
[1] = target: panel of 255 wild-type kinases (Homo sapiens, UniProt P49840)
[2] = target: panel of 255 wild-type kinases (Homo sapiens, UniProt P54756)
[3] = target: panel of 255 wild-type kinases (Homo sapiens, UniProt O95819)
[4] = target: T1, panel of 255 wild-type kinases (Homo sapiens, UniProt Q13237)
T1 sequence (Q13237 1-762): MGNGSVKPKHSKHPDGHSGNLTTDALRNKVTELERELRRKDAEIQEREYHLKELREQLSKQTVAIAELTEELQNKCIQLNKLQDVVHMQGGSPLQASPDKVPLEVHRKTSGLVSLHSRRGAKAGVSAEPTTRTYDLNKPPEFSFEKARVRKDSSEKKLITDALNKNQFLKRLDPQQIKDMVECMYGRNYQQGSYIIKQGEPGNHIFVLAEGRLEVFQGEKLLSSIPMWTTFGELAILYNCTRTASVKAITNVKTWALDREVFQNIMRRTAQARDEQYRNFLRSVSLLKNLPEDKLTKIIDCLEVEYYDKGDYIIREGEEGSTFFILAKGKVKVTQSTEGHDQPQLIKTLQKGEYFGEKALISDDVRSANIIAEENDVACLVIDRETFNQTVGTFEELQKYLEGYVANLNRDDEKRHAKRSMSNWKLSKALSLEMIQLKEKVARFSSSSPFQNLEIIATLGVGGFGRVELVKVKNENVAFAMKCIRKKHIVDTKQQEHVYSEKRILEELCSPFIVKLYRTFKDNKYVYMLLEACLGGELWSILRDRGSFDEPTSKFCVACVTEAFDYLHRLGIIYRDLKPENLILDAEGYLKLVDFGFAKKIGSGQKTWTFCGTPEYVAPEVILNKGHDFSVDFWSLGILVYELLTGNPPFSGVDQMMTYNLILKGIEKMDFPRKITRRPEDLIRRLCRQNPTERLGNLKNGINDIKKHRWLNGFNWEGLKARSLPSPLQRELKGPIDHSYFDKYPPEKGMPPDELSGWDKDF

[5] = target: panel of 255 wild-type kinases (Homo sapiens, UniProt Q13464)
[6] = target: T2, panel of 255 wild-type kinases (Homo sapiens, UniProt Q8IW41)
T2 sequence (Q8IW41 1-473): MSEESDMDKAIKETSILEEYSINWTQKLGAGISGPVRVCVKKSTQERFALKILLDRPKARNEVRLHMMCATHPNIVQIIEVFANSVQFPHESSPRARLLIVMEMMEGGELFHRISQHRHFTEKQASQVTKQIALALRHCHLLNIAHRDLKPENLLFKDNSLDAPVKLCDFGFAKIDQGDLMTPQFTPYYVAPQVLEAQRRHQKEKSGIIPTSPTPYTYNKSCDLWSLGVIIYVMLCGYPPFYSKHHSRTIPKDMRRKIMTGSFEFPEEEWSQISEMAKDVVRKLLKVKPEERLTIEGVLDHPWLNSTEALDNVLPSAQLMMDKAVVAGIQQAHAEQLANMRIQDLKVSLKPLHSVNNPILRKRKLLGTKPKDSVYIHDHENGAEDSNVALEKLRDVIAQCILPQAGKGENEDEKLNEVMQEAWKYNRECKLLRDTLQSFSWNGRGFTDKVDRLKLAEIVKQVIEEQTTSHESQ

[7] = target: panel of 255 wild-type kinases (Homo sapiens, UniProt P16591)
[8] = target: T3, panel of 255 wild-type kinases (Homo sapiens, UniProt P54762)
T3 sequence (P54762 18-984): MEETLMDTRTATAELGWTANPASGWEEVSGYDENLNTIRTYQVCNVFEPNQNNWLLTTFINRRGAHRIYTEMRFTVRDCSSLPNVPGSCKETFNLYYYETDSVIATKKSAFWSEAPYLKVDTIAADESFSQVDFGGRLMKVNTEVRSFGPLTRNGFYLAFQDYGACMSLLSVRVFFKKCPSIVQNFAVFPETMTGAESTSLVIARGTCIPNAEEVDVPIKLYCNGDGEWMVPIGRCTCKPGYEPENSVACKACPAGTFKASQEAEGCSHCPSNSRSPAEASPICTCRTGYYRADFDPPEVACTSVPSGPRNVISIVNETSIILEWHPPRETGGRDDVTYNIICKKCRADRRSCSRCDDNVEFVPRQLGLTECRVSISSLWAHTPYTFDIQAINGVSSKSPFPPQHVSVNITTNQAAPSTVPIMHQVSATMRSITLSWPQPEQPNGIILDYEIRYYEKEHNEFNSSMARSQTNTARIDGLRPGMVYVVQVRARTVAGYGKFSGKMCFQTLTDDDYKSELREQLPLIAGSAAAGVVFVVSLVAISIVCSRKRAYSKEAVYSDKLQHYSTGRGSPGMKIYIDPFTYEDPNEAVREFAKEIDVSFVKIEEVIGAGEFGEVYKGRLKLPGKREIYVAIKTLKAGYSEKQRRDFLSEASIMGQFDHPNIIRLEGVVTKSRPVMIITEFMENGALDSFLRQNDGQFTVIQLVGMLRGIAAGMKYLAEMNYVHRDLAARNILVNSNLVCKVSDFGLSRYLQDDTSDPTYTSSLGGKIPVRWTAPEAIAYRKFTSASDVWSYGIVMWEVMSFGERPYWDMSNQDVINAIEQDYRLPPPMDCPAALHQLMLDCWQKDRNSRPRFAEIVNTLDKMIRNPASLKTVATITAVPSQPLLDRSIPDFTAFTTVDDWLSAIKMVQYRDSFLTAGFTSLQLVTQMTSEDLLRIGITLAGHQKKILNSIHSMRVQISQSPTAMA

[9] = kinase GSK3α, 1 µmol/L single concentration, ref DOI: 10.1158/1535-7163.MCT-18-0877
[10] = kinase EPHA5, 1 µmol/L single concentration, ref DOI: 10.1158/1535-7163.MCT-18-0877
[11] = kinase HGK, 1 µmol/L single concentration, ref DOI: 10.1158/1535-7163.MCT-18-0877
[12] = CGK2 kinase assay, 1 µmol/L single concentration, ref DOI: 10.1158/1535-7163.MCT-18-0877
[13] = kinase ROCK1, 1 µmol/L single concentration, ref DOI: 10.1158/1535-7163.MCT-18-0877
[14] = MAPKAPK5, 1 µmol/L single concentration, ref DOI: 10.1158/1535-7163.MCT-18-0877
[15] = kinase FER, 1 µmol/L single concentration, ref DOI: 10.1158/1535-7163.MCT-18-0877
[16] = kinase EPHB1, 1 µmol/L single concentration, ref DOI: 10.1158/1535-7163.MCT-18-0877
[17] = CGK2 kinase assay, 1 µmol/L single concentration, ref DOI: 10.1371/journal.pone.0092146
[18] = kinase FER, 1 µmol/L single concentration, ref DOI: 10.1371/journal.pone.0092146
[19] = kinase EPHB1, 1 µmol/L single concentration, ref DOI: 10.1371/journal.pone.0092146

| SMILES | %-inhibition at 1 µmol/L, GSK3α [1, 9] [%] | %-inhibition at 1 µmol/L, EPHA5 [2, 10] [%] | %-inhibition at 1 µmol/L, HGK [3, 11] [%] | %-inhibition CGK2 [4, 12] [%] | %-inhibition at 1 µmol/L, ROCK1 [5, 13] [%] | %-inhibition, MAPKAPK5 [6, 14] [%] | %-inhibition at 1 µmol/L, FER [7, 15] [%] | %-inhibition at 1 µmol/L, EPHB1 [8, 16] [%] | also measured |
| --- | --- | --- | --- | --- | --- | --- | --- | --- | --- |
| CC#CC(=O)N1CCC[C@H]1c1nc(-c2ccc(C(=O)Nc3ccccn3)cc2)c2c(N)nccn12 [acalabrutinib] | 2.47 | -1.17 | -1.42 | 1.55 | -8 | -1.87 | -2.54 | -1.4 | – |
| CCc1cc2c(cc1N1CCC(N3CCOCC3)CC1)C(C)(C)c1[nH]c3cc(C#N)ccc3c1C2=O [alectinib] | 4.36 | 2.67 | 20 | 7.53 | -2 | -2.38 | 66 | 21 | – |
| COc1cc(N2CCC(N3CCN(C)CC3)CC2)ccc1Nc1ncc(Cl)c(Nc2ccccc2P(C)(C)=O)n1 [brigatinib] | – | – | – | – | – | – | – | – | %-inhibition at 1 µmol/L, GSK3α [1]: 4%; %-inhibition at 1 µmol/L, EPHA5 [2]: 4%; %-inhibition at 1 µmol/L, HGK [3]: 18%; %-inhibition CGK2 [4]: 37%; %-inhibition at 1 µmol/L, ROCK1 [5]: 25%; %-inhibition, MAPKAPK5 [6]: 3.41%; %-inhibition at 1 µmol/L, FER [7]: 102%; %-inhibition at 1 µmol/L, EPHB1 [8]: 36% |
| Cc1cc(Nc2ncc(Cl)c(Nc3ccccc3S(=O)(=O)C(C)C)n2)c(OC(C)C)cc1C1CCNCC1 [ceritinib] | 15 | 5 | 10 | 14 | 31 | -2.68 | 100 | 26 | – |
| O=C(c1ccc(F)c(F)c1Nc1ccc(I)cc1F)N1CC(O)([C@@H]2CCCCN2)C1 [cobimetinib] | 3.42 | 1.26 | 2.27 | 0.273 | -2.61 | -1 | 4 | 4 | – |
| C[C@@H](Oc1cc(-c2cnn(C3CCNCC3)c2)cnc1N)c1c(Cl)ccc(F)c1Cl [crizotinib] | – | – | – | – | – | – | – | – | %-inhibition at 1 µmol/L, GSK3α ([1]; kinase GSK3α, 1 µmol/L single concentration, ref DOI: 10.1371/journal.pone.0092146): -2.56%; %-inhibition at 1 µmol/L, EPHA5 ([2]; kinase EPHA5, 1 µmol/L single concentration, ref DOI: 10.1371/journal.pone.0092146): 71%; %-inhibition CGK2 [4, 17]: -0.915%; %-inhibition at 1 µmol/L, ROCK1 ([5]; kinase ROCK1, 1 µmol/L single concentration, ref DOI: 10.1371/journal.pone.0092146): 3.39%; %-inhibition, MAPKAPK5 ([6]; MAPKAPK5, 1 µmol/L single concentration, ref DOI: 10.1371/journal.pone.0092146): -3.19%; %-inhibition at 1 µmol/L, FER [7, 18]: 90%; %-inhibition at 1 µmol/L, EPHB1 [8, 19]: 93% |
| CC(C)(C)c1nc(-c2cccc(NS(=O)(=O)c3c(F)cccc3F)c2F)c(-c2ccnc(N)n2)s1 [dabrafenib] | – | – | – | – | – | – | – | – | %-inhibition at 1 µmol/L, HGK ([3]; kinase HGK, 1 µmol/L single concentration, ref DOI: 10.1371/journal.pone.0092146): 7%; %-inhibition CGK2 [4, 17]: -1.38%; %-inhibition at 1 µmol/L, FER [7, 18]: 22%; %-inhibition at 1 µmol/L, EPHB1 [8, 19]: 12% |
| C=CC(=O)N1CCC[C@@H](n2nc(-c3ccc(Oc4ccccc4)cc3)c3c(N)ncnc32)C1 [ibrutinib] | 2.24 | 26 | -0.0249 | -1.77 | -5.42 | -2.44 | – | 12 | – |
| CO[C@@H]1[C@H](N(C)C(=O)c2ccccc2)C[C@H]2O[C@]1(C)n1c3ccccc3c3c4c(c5c6ccccc6n2c5c31)C(=O)NC4 [midostaurin] | – | 8 | 97 | – | 13 | -2 | 101 | – | %-inhibition at 1 µmol/L, GSK3α [1]: 87% |
| C=CC(=O)Nc1cc(Nc2nccc(-c3cn(C)c4ccccc34)n2)c(OC)cc1N(C)CCN(C)C [osimertinib] | 15 | -0.189 | 80 | 11 | -5 | 0.814 | 78 | 13 | – |
